Data: ChEMBL document CHEMBL1201862, “PubChem BioAssay data set” (2004)
Blank lines part the entries; values can stand above or below the compound they belong to. Activity calls are given as the source filed them.

Tests used:
[1] = target: Peroxisome proliferator-activated receptor gamma (Homo sapiens, UniProt P37231); assay: PPARg partial agonists, dose response, cell-based, luminescence, assay provider (AID 504447); format: functional
[2] = target: T1, E3 ubiquitin-protein ligase XIAP (Homo sapiens, UniProt P98170); assay: Counter Screen using XIAP-Bir3 of the Chemical Antagonists of IAP-family anti-apoptotic proteins confirmation assay. [Related pubchem assays (depositor defined):AID1018, AID1449, AID1513, AID1638, AID1749, AID1750, AID488957, AID488963]
[3] = target: T1, E3 ubiquitin-protein ligase XIAP; assay: Chemical Antagonists of IAP-family anti-apoptotic proteins confirmation. [Related pubchem assays (depositor defined):AID1018, AID1513, AID1514, AID1638, AID1749, AID1750, AID488957, AID488963]
[4] = target: Alkaline phosphatase, placental type (Homo sapiens, UniProt P05187); assay: PLAP enzyme inhibitors, confirmation, biochemical, luminescence (AID 1512); format: functional
[5] = target: T2, Alkaline phosphatase, tissue-nonspecific isozyme (Homo sapiens, UniProt P05186); assay: human TNAP enzyme inhibitors, SAR follow-up, biochemical, luminescent, dose response (AID 1056)
T2 sequence (P05186 whole entry): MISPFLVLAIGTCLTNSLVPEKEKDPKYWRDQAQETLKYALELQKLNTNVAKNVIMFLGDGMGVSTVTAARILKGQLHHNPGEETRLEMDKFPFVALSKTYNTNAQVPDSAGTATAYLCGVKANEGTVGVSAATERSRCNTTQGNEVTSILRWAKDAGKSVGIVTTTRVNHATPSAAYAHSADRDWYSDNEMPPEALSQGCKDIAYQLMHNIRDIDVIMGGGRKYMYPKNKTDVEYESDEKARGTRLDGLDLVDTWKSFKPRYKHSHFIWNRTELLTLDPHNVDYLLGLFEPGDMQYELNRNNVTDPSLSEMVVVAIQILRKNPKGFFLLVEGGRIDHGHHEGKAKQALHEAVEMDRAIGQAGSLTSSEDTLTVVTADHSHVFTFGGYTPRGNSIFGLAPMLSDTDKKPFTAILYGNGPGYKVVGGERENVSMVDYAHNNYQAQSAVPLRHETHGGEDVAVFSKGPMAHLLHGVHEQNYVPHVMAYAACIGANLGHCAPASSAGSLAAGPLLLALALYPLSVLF

[6] = target: T3, G-protein coupled receptor 35 (Homo sapiens, UniProt Q9HC97); assay: SAR analysis of Agonists of the GPR35 Receptor using an Image-Based Assay - Set 3. [Related pubchem assays (depositor defined):AID1961, AID1965]; format: functional
Cannabinoid receptor 2 [7] = target: T4, Cannabinoid receptor 2 (Homo sapiens, UniProt P34972); assay: SAR analysis of agonists of the Cannabinoid Receptor 2 using an Image-Based Assay - Set 2. [Related pubchem assays (depositor defined):AID1961, AID1965]; format: functional
Cannabinoid receptor 1 [8] = target: T5, Cannabinoid receptor 1 (Homo sapiens, UniProt P21554); assay: SAR analysis of agonists of the Cannabinoid Receptor 1 using an Image-Based Assay - Set 3. [Related pubchem assays (depositor defined):AID1961, AID1965]; format: functional
Cannabinoid receptor 1 [9] = target: T5, Cannabinoid receptor 1; assay: SAR analysis of antagonists of the Cannabinoid Receptor 1 using an Image-Based Assay - Set 3. [Related pubchem assays (depositor defined):AID1961, AID1965]; format: functional
[10] = target: T3, G-protein coupled receptor 35; assay: SAR analysis of Antagonists of the GPR35 Receptor using an Image-Based Assay - Set 4. [Related pubchem assays (depositor defined):[…]]; format: functional
[11] = target: G-protein coupled receptor 55 (Homo sapiens, UniProt Q9Y2T6); assay: SAR analysis of selective Agonists of GPR55 using an Image-Based Assay - Set 2. [Related pubchem assays (depositor defined):AID1961, AID1965]; format: functional
Cannabinoid receptor 2 [12] = target: T4, Cannabinoid receptor 2; assay: SAR analysis of antagonists of the Cannabinoid Receptor 2 using an Image-Based Assay - Set 2. [Related pubchem assays (depositor defined):AID1961, AID1965]; format: functional
[13] = tested on: Streptococcus sp. 'group A'; assay: growth inhibition of control SK(-) GAS strain, dose response, counter-screen for streptokinase expression inhibitor project, luminescence, kanamycin, BacTiterGlo, confirmation (AID 1900); format: functional, organism-based
Troponin, cardiac muscle = Troponin, cardiac muscle (Homo sapiens, UniProt P19429+P45379+P63316); assay: Fluorescence-based biochemical high throughput dose response assay for activators of the calcium sensitivity of cardiac Regulated Thin Filaments (RTF). [Related pubchem assays (depositor defined):AID493008, AID493018, AID504382, AID504383]; format: protein-complex assay
[14] = target: Heat shock protein HSP 90-alpha (Homo sapiens, UniProt P07900); format: functional, organism-based
INS1 = assay: beta cell apoptosis inhibitors, cytokine rescue, dose response, luminescence, retest (AID 449756); format: functional, cell-based; conditions: Rattus norvegicus;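 further: cell death triggered by IL-1 beta plus TNF-alpha plus IFN-gamma mixture; protective hits raise ATP signal compared with cytokine alone wells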
Streptococcus = assay: Group A Streptococcus viability loss, dose response, counter-screen for streptokinase expression inhibitor project, luminescence, BacTiterGlo (AID 1915); format: functional, organism-based;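 further: potency for reduction of bacterial viability or growth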

T5 sequence (P21554 whole entry): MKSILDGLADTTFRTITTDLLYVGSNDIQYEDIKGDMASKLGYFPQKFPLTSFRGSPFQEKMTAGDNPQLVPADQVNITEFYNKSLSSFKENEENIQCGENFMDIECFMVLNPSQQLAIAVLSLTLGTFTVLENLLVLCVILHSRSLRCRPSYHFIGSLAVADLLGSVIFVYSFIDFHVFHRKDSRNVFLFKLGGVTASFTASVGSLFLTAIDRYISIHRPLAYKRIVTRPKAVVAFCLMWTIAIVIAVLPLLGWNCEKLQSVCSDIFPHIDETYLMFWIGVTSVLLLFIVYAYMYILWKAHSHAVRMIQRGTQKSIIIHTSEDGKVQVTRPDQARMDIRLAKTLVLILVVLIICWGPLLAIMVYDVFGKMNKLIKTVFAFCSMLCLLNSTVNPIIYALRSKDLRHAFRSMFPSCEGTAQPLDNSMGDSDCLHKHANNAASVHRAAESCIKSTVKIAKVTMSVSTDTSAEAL
T1 sequence (P98170 whole entry): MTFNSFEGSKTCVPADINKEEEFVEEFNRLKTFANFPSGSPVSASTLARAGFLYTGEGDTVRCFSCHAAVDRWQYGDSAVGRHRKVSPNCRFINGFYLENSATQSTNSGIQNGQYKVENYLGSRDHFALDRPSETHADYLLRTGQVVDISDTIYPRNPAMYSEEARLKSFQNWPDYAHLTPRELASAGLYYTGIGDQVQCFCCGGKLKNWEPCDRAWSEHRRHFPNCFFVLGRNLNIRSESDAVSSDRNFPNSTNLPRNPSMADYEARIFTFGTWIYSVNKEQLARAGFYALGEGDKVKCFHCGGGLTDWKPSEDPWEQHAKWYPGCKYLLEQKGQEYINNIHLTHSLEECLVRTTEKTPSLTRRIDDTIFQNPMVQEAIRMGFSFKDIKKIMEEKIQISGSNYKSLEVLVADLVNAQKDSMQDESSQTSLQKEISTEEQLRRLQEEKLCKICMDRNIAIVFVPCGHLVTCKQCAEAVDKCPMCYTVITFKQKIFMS
T4 sequence (P34972 whole entry): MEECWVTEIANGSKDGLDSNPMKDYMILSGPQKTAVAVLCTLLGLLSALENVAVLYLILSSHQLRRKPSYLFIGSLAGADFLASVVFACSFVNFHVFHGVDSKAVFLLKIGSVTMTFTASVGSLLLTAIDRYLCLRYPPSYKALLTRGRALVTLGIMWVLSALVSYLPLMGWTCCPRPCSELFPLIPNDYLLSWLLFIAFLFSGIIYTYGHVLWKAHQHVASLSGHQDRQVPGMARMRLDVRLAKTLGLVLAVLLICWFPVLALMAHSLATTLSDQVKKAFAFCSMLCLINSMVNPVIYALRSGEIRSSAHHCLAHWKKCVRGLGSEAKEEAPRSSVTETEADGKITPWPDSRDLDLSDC
T3 sequence (Q9HC97 whole entry): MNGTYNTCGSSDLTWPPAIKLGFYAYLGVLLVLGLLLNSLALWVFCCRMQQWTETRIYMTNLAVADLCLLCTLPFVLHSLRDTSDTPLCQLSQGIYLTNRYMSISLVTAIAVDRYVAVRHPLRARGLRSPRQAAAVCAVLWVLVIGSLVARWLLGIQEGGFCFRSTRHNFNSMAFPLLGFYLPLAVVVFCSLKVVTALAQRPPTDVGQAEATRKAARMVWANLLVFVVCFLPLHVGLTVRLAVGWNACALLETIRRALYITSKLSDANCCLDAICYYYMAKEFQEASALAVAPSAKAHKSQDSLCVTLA
Peroxisome proliferator-activated receptor gamma, sequence (P37231 whole entry): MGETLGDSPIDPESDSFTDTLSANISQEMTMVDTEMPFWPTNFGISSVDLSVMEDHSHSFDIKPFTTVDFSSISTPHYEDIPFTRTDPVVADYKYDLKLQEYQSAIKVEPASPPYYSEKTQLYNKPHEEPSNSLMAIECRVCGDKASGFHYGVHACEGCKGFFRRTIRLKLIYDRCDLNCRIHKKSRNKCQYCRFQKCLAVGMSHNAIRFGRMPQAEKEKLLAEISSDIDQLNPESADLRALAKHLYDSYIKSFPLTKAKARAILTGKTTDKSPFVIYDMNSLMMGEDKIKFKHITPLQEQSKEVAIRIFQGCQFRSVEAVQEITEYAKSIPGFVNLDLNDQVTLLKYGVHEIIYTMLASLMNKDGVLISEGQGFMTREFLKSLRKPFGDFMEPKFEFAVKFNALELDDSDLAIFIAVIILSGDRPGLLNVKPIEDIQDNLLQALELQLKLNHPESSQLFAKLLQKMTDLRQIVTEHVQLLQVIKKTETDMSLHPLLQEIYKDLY
Alkaline phosphatase, placental type, sequence (P05187 whole entry): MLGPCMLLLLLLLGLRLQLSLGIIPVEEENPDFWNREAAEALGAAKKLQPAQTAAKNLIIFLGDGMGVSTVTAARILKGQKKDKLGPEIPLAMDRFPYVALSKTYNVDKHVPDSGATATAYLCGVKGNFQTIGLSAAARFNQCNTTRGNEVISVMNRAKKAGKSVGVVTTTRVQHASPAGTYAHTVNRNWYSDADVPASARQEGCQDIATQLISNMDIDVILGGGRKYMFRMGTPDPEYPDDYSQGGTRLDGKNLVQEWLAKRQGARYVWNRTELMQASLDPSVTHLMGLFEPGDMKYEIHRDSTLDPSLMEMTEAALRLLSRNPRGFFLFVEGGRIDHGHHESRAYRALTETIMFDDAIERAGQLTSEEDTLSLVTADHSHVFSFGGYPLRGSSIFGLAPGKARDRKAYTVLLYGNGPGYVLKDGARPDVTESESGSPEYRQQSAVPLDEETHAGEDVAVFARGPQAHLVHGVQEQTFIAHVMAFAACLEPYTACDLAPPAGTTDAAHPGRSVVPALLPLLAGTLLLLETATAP
G-protein coupled receptor 55, sequence (Q9Y2T6 whole entry): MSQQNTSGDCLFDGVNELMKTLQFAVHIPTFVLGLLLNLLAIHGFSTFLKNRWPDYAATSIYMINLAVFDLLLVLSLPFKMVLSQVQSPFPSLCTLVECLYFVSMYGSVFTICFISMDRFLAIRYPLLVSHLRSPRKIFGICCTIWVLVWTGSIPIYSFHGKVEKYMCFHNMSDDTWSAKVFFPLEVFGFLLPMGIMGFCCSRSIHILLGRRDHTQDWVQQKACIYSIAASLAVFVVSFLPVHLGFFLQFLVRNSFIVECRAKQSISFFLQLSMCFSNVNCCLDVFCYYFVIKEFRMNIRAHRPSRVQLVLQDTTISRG

EC50 [1]: 0.502 µM (active)
SMILES: COc1cccc(Cn2nc3c4cc(F)ccc4n(Cc4ccc(F)cc4)cc-3c2=O)c1

IC50 [2]: > 200 µM (inactive)
IC50 [3]: > 200 µM (inactive)
SMILES: O=C(O)C(c1ccc(F)cc1)N1Cc2ccccc2C1=O (configuration not stated)

IC50 [4]: 92.3 µM (active)
IC50 [5]: > 100 µM (inactive)
SMILES: O=C(NC1(C(F)(F)F)Oc2ccccc2O1)Sc1ccccc1

EC50 [6]: > 32 µM (inactive)
EC50 (Cannabinoid receptor 2 [7]): > 32 µM (inactive)
EC50 (Cannabinoid receptor 1 [8]): > 32 µM (inactive)
IC50 (Cannabinoid receptor 1 [9]): > 32 µM (inactive)
IC50 [10]: > 32 µM (inactive)
EC50 [11]: 4.56 µM (active)
IC50 (Cannabinoid receptor 2 [12]): > 32 µM (inactive)
SMILES: COc1ccc(S(=O)(=O)N2CCOCC2)cc1NC(=O)c1ccc(OCC(C)C)c(OC)c1

SMILES: O=C(N/N=C/c1sc2ccccc2c1O)c1ccccc1
EC50 [13]: 0.702 µM (active)
EC50 (Troponin, cardiac muscle): 3.91 µM (active)
AC50 [14]: 1.02 µM (active)
AC50 (INS1): 0.864 µM (active)
EC50 (Streptococcus): 10.1 µM (active)
